Assay results as given in patent US20050165047A1, “Crystalline fumarate salts of 1-azabicyclo[2.2.2]oct substituted furo[2,3-c]pyridinyl carboxamide and compositions and preparations thereof” (Pfizer Inc, priority 2002, published 2005).

Experiment: Moisture sorption by DMSG on a controlled atmosphere microbalance
Assay type: physicochemical
Conditions: 25° C.
Experimental: The sorption of water by the solid lattice at a given relative humidity (RH) was measured by DMSG on a controlled atmosphere microbalance. Scans were carried out at 25° C. from 36% to 0% RH then ramped to 90% RH, and back down to 0% RH with a step size of 3% RH. A sample size of 8 to 14 mg was used. At each step, the balance was considered equilibrated when the mass change was less than 0.01 mg for five consecutive scans. There were 120 seconds between each scan.
Table 3 provides the moisture sorption data at 25° C. for Crystal Forms Ia and Ib of N-[1-azabicyclo[2.2.2]oct-3-yl]furo[2,3-c]pyridine-5-carboxamide.

With O=C(N[C@H]1CN2CCC1CC2)c1cc2ccoc2cn1 [Crystal Form Ia, N-[(3R)-1-azabicyclo[2.2.2]oct-3-yl]furo[2,3-c]pyridine-5-carboxamide] the “% dMass” value (RH 0%, 0-90% RH) was 0.006227%, the “% dMass” value (RH 0%, 36-0% RH) was 0.008896% and the “% dMass” value (RH 0.1%, 36-0% RH) was 0.01245%. For the same molecule, the “% dMass” value (RH 0.36%, 36-0% RH) was 0.01156%, the “% dMass” value (RH 1.3%, 0-90% RH) was 0.01512% and the “% dMass” value (RH 1.6%, 36-0% RH) was 0.02224%. For the same molecule, the “% dMass” value (RH 4.3%, 0-90% RH) was 0.0258%, the “% dMass” value (RH 4.74%, 36-0% RH) was 0.0338% and the “% dMass” value (RH 7.1%, 0-90% RH) was 0.03736%. For the same molecule, the “% dMass” value (RH 7.98%, 36-0% RH) was 0.0427%, the “% dMass” value (RH 10.1%, 0-90% RH) was 0.04448% and the “% dMass” value (RH 10.8%, 36-0% RH) was 0.04893%. The “% dMass” value (RH 13.14%, 0-90% RH) was 0.05249%, the “% dMass” value (RH 13.96%, 36-0% RH) was 0.05515% and the “% dMass” value (RH 16.18%, 0-90% RH) was 0.05782%. For the same molecule, the “% dMass” value (RH 17.1%, 36-0% RH) was 0.06227%, the “% dMass” value (RH 19.28%, 0-90% RH) was 0.06227% and the “% dMass” value (RH 19.94%, 36-0% RH) was 0.07028%. The “% dMass” value (RH 22.56%, 0-90% RH) was 0.07295%, the “% dMass” value (RH 23.18%, 36-0% RH) was 0.07739% and the “% dMass” value (RH 25.72%, 0-90% RH) was 0.07828%. The “% dMass” value (RH 28.68%, 0-90% RH) was 0.08362%, the “% dMass” value (RH 31.96%, 0-90% RH) was 0.09341% and the “% dMass” value (RH 35.18%, 0-90% RH) was 0.1005%. The “% dMass” value (RH 38.16%, 0-90% RH) was 0.1076%, the “% dMass” value (RH 41.24%, 0-90% RH) was 0.1139% and the “% dMass” value (RH 44.36%, 0-90% RH) was 0.1165%. For the same molecule, the “% dMass” value (RH 47.56%, 0-90% RH) was 0.1237%, the “% dMass” value (RH 50.7%, 0-90% RH) was 0.1334% and the “% dMass” value (RH 53.86%, 0-90% RH) was 0.1423%. The “% dMass” value (RH 56.98%, 0-90% RH) was 0.153%, the “% dMass” value (RH 60.24%, 0-90% RH) was 0.1646% and the “% dMass” value (RH 63.9%, 0-90% RH) was 0.1841%. For the same molecule, the “% dMass” value (RH 66.22%, 90-0% RH) was 0.2046%, the “% dMass” value (RH 66.66%, 0-90% RH) was 0.2028% and the “% dMass” value (RH 69.18%, 90-0% RH) was 0.234%. For the same molecule, the “% dMass” value (RH 69.48%, 0-90% RH) was 0.2251%, the “% dMass” value (RH 72.34%, 90-0% RH) was 0.3194% and the “% dMass” value (RH 72.76%, 0-90% RH) was 0.2562%. The “% dMass” value (RH 75.26%, 90-0% RH) was 0.3629%, the “% dMass” value (RH 75.68%, 0-90% RH) was 0.2936% and the “% dMass” value (RH 77.96%, 90-0% RH) was 0.4074%. The “% dMass” value (RH 78.42%, 0-90% RH) was 0.3371%, the “% dMass” value (RH 80.84%, 90-0% RH) was 0.4706% and the “% dMass” value (RH 81.9%, 0-90% RH) was 0.4163%. The “% dMass” value (RH 83.48%, 90-0% RH) was 0.5569%, the “% dMass” value (RH 85.3%, 0-90% RH) was 0.6218% and the “% dMass” value (RH 85.94%, 90-0% RH) was 0.693%. For the same molecule, the “% dMass” value (RH 88.38%, 0-90% RH) was 0.9643%, the “% dMass” value (RH 88.42%, 90-0% RH) was 0.9723% and the “hygroscopicity compared with Crystal Form Ib” value (above 74% relative humidity (RH)) was “less hygroscopic”.
In the case of O=C(N[C@H]1CN2CCC1CC2)c1cc2ccoc2cn1 [Crystal Form Ib, N-[(3R)-1-azabicyclo[2.2.2]oct-3-yl]furo[2,3-c]pyridine-5-carboxamide], the “% dMass” value (RH 0%, 36-0% RH) is reported as 0.1164%, the “% dMass” value (RH 0.24%, 36-0% RH) is reported as 0.1225% and the “% dMass” value (RH 2.62%, 0-90% RH) is reported as 0.1479%. For the same molecule, the “% dMass” value (RH 3.16%, 36-0% RH) was 0.1628%, the “% dMass” value (RH 5.84%, 0-90% RH) was 0.1768% and the “% dMass” value (RH 6.36%, 36-0% RH) was 0.1899%. For the same molecule, the “% dMass” value (RH 8.98%, 0-90% RH) was 0.2048%, the “% dMass” value (RH 9.74%, 36-0% RH) was 0.2197% and the “% dMass” value (RH 12.2%, 0-90% RH) was 0.2293%. For the same molecule, the “% dMass” value (RH 12.78%, 36-0% RH) was 0.2451%, the “% dMass” value (RH 15.34%, 0-90% RH) was 0.2547% and the “% dMass” value (RH 15.78%, 36-0% RH) was 0.2678%. The “% dMass” value (RH 18.46%, 0-90% RH) was 0.281%, the “% dMass” value (RH 18.8%, 36-0% RH) was 0.2932% and the “% dMass” value (RH 21.42%, 0-90% RH) was 0.3037%. For the same molecule, the “% dMass” value (RH 21.88%, 36-0% RH) was 0.3195%, the “% dMass” value (RH 24.66%, 0-90% RH) was 0.3335% and the “% dMass” value (RH 25.1%, 36-0% RH) was 0.3466%. For the same molecule, the “% dMass” value (RH 27.74%, 0-90% RH) was 0.3606%, the “% dMass” value (RH 28.16%, 36-0% RH) was 0.3772% and the “% dMass” value (RH 30.82%, 0-90% RH) was 0.3921%. For the same molecule, the “% dMass” value (RH 33.92%, 0-90% RH) was 0.4245%, the “% dMass” value (RH 36.96%, 0-90% RH) was 0.4586% and the “% dMass” value (RH 39.9%, 0-90% RH) was 0.491%. For the same molecule, the “% dMass” value (RH 43.18%, 0-90% RH) was 0.5348%, the “% dMass” value (RH 46.14%, 0-90% RH) was 0.5768% and the “% dMass” value (RH 49.16%, 0-90% RH) was 0.6302%. For the same molecule, the “% dMass” value (RH 52.12%, 0-90% RH) was 0.6871%, the “% dMass” value (RH 55.1%, 0-90% RH) was 0.7501% and the “% dMass” value (RH 58.08%, 0-90% RH) was 0.8219%. For the same molecule, the “% dMass” value (RH 61.08%, 0-90% RH) was 0.9068%, the “% dMass” value (RH 64.04%, 0-90% RH) was 1.002% and the “% dMass” value (RH 67.02%, 0-90% RH) was 1.124%. For the same molecule, the “% dMass” value (RH 68.62%, 90-0% RH) was 26.01%, the “% dMass” value (RH 70%, 0-90% RH) was 1.281% and the “% dMass” value (RH 71.48%, 90-0% RH) was 26.27%. For the same molecule, the “% dMass” value (RH 72.9%, 0-90% RH) was 1.505%, the “% dMass” value (RH 74.3%, 90-0% RH) was 26.58% and the “% dMass” value (RH 75.9%, 0-90% RH) was 1.925%. The “% dMass” value (RH 77.1%, 90-0% RH) was 26.92%, the “% dMass” value (RH 79.2%, 0-90% RH) was 26.93% and the “% dMass” value (RH 79.88%, 90-0% RH) was 27.36%. For the same molecule, the “% dMass” value (RH 82%, 0-90% RH) was 27.4%, the “% dMass” value (RH 82.5%, 90-0% RH) was 28% and the “% dMass” value (RH 85.04%, 0-90% RH) was 28.18%. The “% dMass” value (RH 85.12%, 90-0% RH) was 30.2%, the “% dMass” value (RH 87.82%, 0-90% RH) was 30.29% and the “% dMass” value (RH 87.9%, 90-0% RH) was 32.21%. The “% dMass” value (RH 90.7%, 0-90% RH) was 38.78% and the “% dMass” value (RH 90.7%, 90-0% RH) was 38.8%.
